How the values were obtained:
Format in all cases: in vivo
[1] = test system: giant foxtail (Setaria faberi); experiment: Preemergence herbicidal activity; conditions: scored after 3 weeks, 0 no injury, 100 complete kill or no germination
Description: (§1) The soil matrix was contained in plastic pots with a surface area of 161 square centimeters. When required to ensure good germination and healthy plants, a fungicide treatment and/or other chemical or physical treatment was applied. A weighed amount, determined by the highest rate to be tested, of each test compound was placed in a 20 mL glass vial and was dissolved in 8 mL of a 97:3 v/v (volume/volume) mixture of acetone and dimethyl sulfoxide to obtain concentrated stock solutions. […] The stock solutions obtained were diluted with a 99.9:0.1 mixture of water and Tween® 155 surfactant (ethoxylated sorbitan fatty acid ester) to obtain application solutions of known concentration. The solutions containing the highest concentration to be tested were prepared by diluting 4 mL aliquots of the stock solution with 8.5 mL of the mixture and lower concentrations were prepared by dilution of appropriate smaller portions of the stock solution. A 2.5 mL aliquot of each solution of known concentration was sprayed evenly onto the soil of each seeded pot using a Cornwall 5.0 mL glass syringe fitted with a TeeJet TN-3 hollow cone nozzle to obtain thorough coverage of the soil in each pot. Control pots were sprayed in the same manner with the aqueous mixture. A highest application rate of 4.48 kg/ha is achieved when 50 mg of test compound is employed. The treated pots and control pots were placed in a greenhouse with an approximately 15 hr photoperiod which was maintained at about 23-29° C. during the day and 22-28° C. during the night. Nutrients and water were added on a regular basis and supplemental lighting was provided with overhead metal halide 1000 Watt lamps as necessary. The water was added by top-irrigation. After 3 weeks the condition of the test plants that germinated and grew as compared with that of the untreated plants that germinated and grew was determined visually and scored on a scale of 0 to 100 percent where 0 corresponds to no injury and 100 corresponds to complete kill or no germination.

[2] = test system: barnyardgrass (Echinochloa crus-galli); experiment: Preemergence herbicidal activity; conditions: scored after 3 weeks, 0 no injury, 100 complete kill or no germination
Description: as §1

wild oats (Avena fatua) [3] = experiment: Preemergence herbicidal activity; conditions: scored after 3 weeks, 0 no injury, 100 complete kill or no germination
Description: as §1

[4] = test system: velvetleaf (Abutilion theophrasti); experiment: Preemergence herbicidal activity; conditions: scored after 3 weeks, 0 no injury, 100 complete kill or no germination
Description: as §1

[5] = test system: pigweed (Amaranthus retroflexus); experiment: Preemergence herbicidal activity; conditions: scored after 3 weeks, 0 no injury, 100 complete kill or no germination
Description: as §1

[6] = test system: blackgrass (Alopecurus myosuroides); experiment: Preemergence herbicidal activity; conditions: scored after 3 weeks, 0 no injury, 100 complete kill or no germination
Description: as §1

[7] = test system: morningglory (Ipomoea hederacea); experiment: Preemergence herbicidal activity; conditions: scored after 3 weeks, 0 no injury, 100 complete kill or no germination
Description: as §1

[8] = test system: Rox orange sorghum (Sorghum bicolor); experiment: Preemergence herbicidal activity; conditions: scored after 3 weeks, 0 no injury, 100 complete kill or no germination
Description: as §1

[9] = test system: crabgrass (Digitaria sanguinalis); experiment: Preemergence herbicidal activity; conditions: scored after 3 weeks, 0 no injury, 100 complete kill or no germination
Description: as §1

[10] = test system: cocklebur (Xanthium strumarium); experiment: Preemergence herbicidal activity; conditions: scored after 3 weeks, 0 no injury, 100 complete kill or no germination
Description: as §1

[11] = test system: lambsquarters (Chenopodium album); experiment: Preemergence herbicidal activity; conditions: scored after 3 weeks, 0 no injury, 100 complete kill or no germination
Description: as §1

[12] = test system: wild poinsettia (Euphorbia heterophylla); experiment: Preemergence herbicidal activity; conditions: scored after 3 weeks, 0 no injury, 100 complete kill or no germination
Description: as §1

[13] = test system: giant foxtail (Setaria faberi); experiment: Postemergence herbicidal activity; conditions: scored after 2 weeks, 0 no injury, 100 complete kill
Description: (§2) Seeds of the desired test plant species were planted in Grace-Sierra MetroMix® 306 planting mixture, which typically has a pH of 6.0 to 6.8 and an organic matter content of about 30 percent, in plastic pots with a surface area of 64 square centimeters. When required to ensure good germination and healthy plants, a fungicide treatment and/or other chemical or physical treatment was applied. The plants were grown for 7-21 days in a greenhouse with an approximately 15 hr photoperiod which was maintained at about 23-29° C. during the day and 22-28° C. during the night. Nutrients and water were added on a regular basis and supplemental lighting was provided with overhead metal halide 1000 Watt lamps as necessary. The plants were employed for testing when they reached the first or second true leaf stage. A weighed amount of each test compound, determined by the highest rate to be tested, was placed in a 20 mL glass vial and was dissolved in 4 mL of a 97:3 v/v (volume/volume) mixture of acetone and dimethyl sulfoxide to obtain concentrated stock solutions. […] The concentrated stock solutions obtained were diluted with an aqueous mixture containing acetone, water, iso-propyl alcohol, dimethyl sulfoxide, Atplus 411F crop oil concentrate, and Triton X-155 surfactant (methylenebisdiamyl phenoxy polyethoxy ethanol) in a 48.5:39:10:1.5:1.0:0.02 v/v ratio to obtain spray solutions of known concentration. The solutions containing the highest concentration to be tested were prepared by diluting 2 mL aliquots of the stock solution with 13 mL of the mixture and lower concentrations were prepared by dilution of appropriate smaller portions of the stock solution. Approximately 1.5 mL aliquots of each solution of known concentration were sprayed evenly onto each of the test plant pots using a Devilbiss atomizer driven by compressed air pressure of 2 to 4 psi (140 to 280 kiloPascals) to obtain thorough coverage of each plant. Control plants were sprayed in the same manner with the aqueous mixture. In this test an application rate of 1 ppm results in the application of approximately 1 g/ha. The treated plants and control plants were placed in a greenhouse as described above and watered by sub-irrigation to prevent wash-off of the test compounds. After 2 weeks the condition of the test plants as compared with that of the untreated plants was determined visually and scored on a scale of 0 to 100 percent where 0 corresponds to no injury and 100 corresponds to complete kill.

[14] = test system: chickweed (Stellaria media); experiment: Postemergence herbicidal activity; conditions: scored after 2 weeks, 0 no injury, 100 complete kill
Description: as §2

[15] = test system: wild buckwheat (Polygonum convolvulus); experiment: Postemergence herbicidal activity; conditions: scored after 2 weeks, 0 no injury, 100 complete kill
Description: as §2

wild oats (Avena fatua) [16] = experiment: Postemergence herbicidal activity; conditions: scored after 2 weeks, 0 no injury, 100 complete kill
Description: as §2

[17] = test system: velvetleaf (Abutilion theophrasti); experiment: Postemergence herbicidal activity; conditions: scored after 2 weeks, 0 no injury, 100 complete kill
Description: as §2

[18] = test system: pigweed (Amaranthus retroflexus); experiment: Postemergence herbicidal activity; conditions: scored after 2 weeks, 0 no injury, 100 complete kill
Description: as §2

[19] = test system: morningglory (Ipomoea hederacea); experiment: Postemergence herbicidal activity; conditions: scored after 2 weeks, 0 no injury, 100 complete kill
Description: as §2

[20] = test system: Rox orange sorghum (Sorghum bicolor); experiment: Postemergence herbicidal activity; conditions: scored after 2 weeks, 0 no injury, 100 complete kill
Description: as §2

viola (Viola tricolor) = experiment: Postemergence herbicidal activity; conditions: scored after 2 weeks, 0 no injury, 100 complete kill
Description: as §2

[21] = test system: cocklebur (Xanthium strumarium); experiment: Postemergence herbicidal activity; conditions: scored after 2 weeks, 0 no injury, 100 complete kill
Description: as §2

[22] = test system: lambsquarters (Chenopodium album); experiment: Postemergence herbicidal activity; conditions: scored after 2 weeks, 0 no injury, 100 complete kill
Description: as §2

[23] = test system: blackgrass (Alopecurus myosuroides); experiment: Postemergence herbicidal activity; conditions: scored after 2 weeks, 0 no injury, 100 complete kill
Description: as §2

With `CCc1ccc(OC)c(S(=O)(=O)Nc2nc3nc(OC)cc(OC)n3n2)c1` [Compound 9] the “Preemergence herbicidal activity SETFA” value ([1]; 70 g/Ha) was 20%, the “Preemergence herbicidal activity ECHCG” value ([2]; 70 g/Ha) was 0% and the “Preemergence herbicidal activity AVEFA” value (wild oats (Avena fatua) [3]; 70 g/Ha) was 0%. The “Preemergence herbicidal activity ABUTH” value ([4]; 70 g/Ha) was 20%, the “Preemergence herbicidal activity AMARE” value ([5]; 70 g/Ha) was 40% and the “Preemergence herbicidal activity ALOMY” value ([6]; 70 g/Ha) was 0%. For the same molecule, the “Preemergence herbicidal activity IPOHE” value ([7]; 70 g/Ha) was 30%, the “Preemergence herbicidal activity SORBI” value ([8]; 70 g/Ha) was 0% and the “Preemergence herbicidal activity DIGSA” value ([9]; 70 g/Ha) was 0%. The “Preemergence herbicidal activity XANST” value ([10]; 70 g/Ha) was 0%, the “Preemergence herbicidal activity CHEAL” value ([11]; 70 g/Ha) was 30% and the “Preemergence herbicidal activity EPHHL” value ([12]; 70 g/Ha) was 0%. For the same molecule, the “Postemergence herbicidal activity SETFA” value ([13]; 62.5 ppm) was 30%, the “Postemergence herbicidal activity STEME” value ([14]; 62.5 ppm) was 50% and the “Postemergence herbicidal activity POLCO” value ([15]; 62.5 ppm) was 50%. For the same molecule, the “Postemergence herbicidal activity AVEFA” value (wild oats (Avena fatua) [16]; 62.5 ppm) was 20%, the “Postemergence herbicidal activity ABUTH” value ([17]; 62.5 ppm) was 30% and the “Postemergence herbicidal activity AMARE” value ([18]; 62.5 ppm) was 70%. For the same molecule, the “Postemergence herbicidal activity IPOHE” value ([19]; 62.5 ppm) was 10%, the “Postemergence herbicidal activity SORBI” value ([20]; 62.5 ppm) was 30% and the “Postemergence herbicidal activity VIOTR” value (viola (Viola tricolor); 62.5 ppm) was 50%. The “Postemergence herbicidal activity XANST” value ([21]; 62.5 ppm) was 70% and the “Postemergence herbicidal activity CHEAL” value ([22]; 62.5 ppm) was 80%.

With `CCOc1ccc(C)cc1S(=O)(=O)Nc1nc2nc(OC)cc(OC)n2n1` [Compound 10] the “Preemergence herbicidal activity SETFA” value ([1]; 35 g/Ha) was 40%, the “Preemergence herbicidal activity ECHCG” value ([2]; 35 g/Ha) was 80% and the “Preemergence herbicidal activity AVEFA” value (wild oats (Avena fatua) [3]; 35 g/Ha) was 80%. The “Preemergence herbicidal activity ABUTH” value ([4]; 35 g/Ha) was 60%, the “Preemergence herbicidal activity AMARE” value ([5]; 35 g/Ha) was 98% and the “Preemergence herbicidal activity ALOMY” value ([6]; 35 g/Ha) was 30%. For the same molecule, the “Preemergence herbicidal activity IPOHE” value ([7]; 35 g/Ha) was 0%, the “Preemergence herbicidal activity SORBI” value ([8]; 35 g/Ha) was 100% and the “Preemergence herbicidal activity DIGSA” value ([9]; 35 g/Ha) was 0%. For the same molecule, the “Preemergence herbicidal activity CHEAL” value ([11]; 35 g/Ha) was 90%, the “Preemergence herbicidal activity EPHHL” value ([12]; 35 g/Ha) was 40% and the “Postemergence herbicidal activity SETFA” value ([13]; 7.8 ppm) was 80%. The “Postemergence herbicidal activity STEME” value ([14]; 7.8 ppm) was 85%, the “Postemergence herbicidal activity POLCO” value ([15]; 7.8 ppm) was 85% and the “Postemergence herbicidal activity AVEFA” value (wild oats (Avena fatua) [16]; 7.8 ppm) was 90%. For the same molecule, the “Postemergence herbicidal activity ABUTH” value ([17]; 7.8 ppm) was 50%, the “Postemergence herbicidal activity AMARE” value ([18]; 7.8 ppm) was 95% and the “Postemergence herbicidal activity ALOMY” value ([23]; 7.8 ppm) was 80%. The “Postemergence herbicidal activity IPOHE” value ([19]; 7.8 ppm) was 20%, the “Postemergence herbicidal activity SORBI” value ([20]; 7.8 ppm) was 85% and the “Postemergence herbicidal activity VIOTR” value (viola (Viola tricolor); 7.8 ppm) was 85%. For the same molecule, the “Postemergence herbicidal activity XANST” value ([21]; 7.8 ppm) was 50% and the “Postemergence herbicidal activity CHEAL” value ([22]; 7.8 ppm) was 95%.

`COc1cc(OC)n2nc(NS(=O)(=O)c3c(OC(C)C)cccc3C(F)(F)F)nc2n1` [Compound 11] was tested, and the “Preemergence herbicidal activity SETFA” value ([1]; 17.5 g/Ha) was 100%, the “Preemergence herbicidal activity ECHCG” value ([2]; 17.5 g/Ha) was 100% and the “Preemergence herbicidal activity AVEFA” value (wild oats (Avena fatua) [3]; 17.5 g/Ha) was 60%. For the same molecule, the “Preemergence herbicidal activity ABUTH” value ([4]; 17.5 g/Ha) was 100%, the “Preemergence herbicidal activity AMARE” value ([5]; 17.5 g/Ha) was 100% and the “Preemergence herbicidal activity ALOMY” value ([6]; 17.5 g/Ha) was 100%. For the same molecule, the “Preemergence herbicidal activity IPOHE” value ([7]; 17.5 g/Ha) was 98%, the “Preemergence herbicidal activity SORBI” value ([8]; 17.5 g/Ha) was 90% and the “Preemergence herbicidal activity DIGSA” value ([9]; 17.5 g/Ha) was 80%. The “Preemergence herbicidal activity XANST” value ([10]; 17.5 g/Ha) was 90%, the “Preemergence herbicidal activity CHEAL” value ([11]; 17.5 g/Ha) was 100% and the “Preemergence herbicidal activity EPHHL” value ([12]; 17.5 g/Ha) was 90%. The “Postemergence herbicidal activity SETFA” value ([13]; 62.5 ppm) was 100%, the “Postemergence herbicidal activity STEME” value ([14]; 62.5 ppm) was 95% and the “Postemergence herbicidal activity POLCO” value ([15]; 62.5 ppm) was 100%. The “Postemergence herbicidal activity AVEFA” value (wild oats (Avena fatua) [16]; 62.5 ppm) was 30%, the “Postemergence herbicidal activity ABUTH” value ([17]; 62.5 ppm) was 100% and the “Postemergence herbicidal activity AMARE” value ([18]; 62.5 ppm) was 100%. For the same molecule, the “Postemergence herbicidal activity ALOMY” value ([23]; 62.5 ppm) was 60%, the “Postemergence herbicidal activity IPOHE” value ([19]; 62.5 ppm) was 80% and the “Postemergence herbicidal activity SORBI” value ([20]; 62.5 ppm) was 50%. The “Postemergence herbicidal activity VIOTR” value (viola (Viola tricolor); 62.5 ppm) was 90%, the “Postemergence herbicidal activity XANST” value ([21]; 62.5 ppm) was 100% and the “Postemergence herbicidal activity CHEAL” value ([22]; 62.5 ppm) was 100%.

Source: patent US6559101B2, “N- (5, 7-dimethoxy [1, 2, 4] triazolo [1, 5-a] pyrimidin-2-yl) arylsulfonamide compounds and their use as herbicides” (Dow AgroSciences LLC, priority 2000, dated 2003)
